The text below walks through data of US20230140983A1, “PYRIDAZINE DERIVATIVES FOR MODULATING NUCLEIC ACID SPLICING” (REMIX THERAPEUTICS INC., priority 2020, published 2023).

One may read the pIC50 as the negative decadic logarithm of the IC50, by convention in mol/L. The AC50 is the concentration at which the activity in the assay is half-maximal.

pIC50: −log10 of the molar value. Structures can show the parent of a compound that is named as a salt. Where two headings read alike, the source gives them in different places.

Type in all cases: cell-based
One assay relates to Target C. The experiment in a line: Gene panel canonical junction qPCR assay, Target C CJ mRNA. Particulars: Table 9, CJ mRNA decrease, read-out: Target C IC50 (decrease in CJ mRNA levels). The method, then: (§1) To set up 10 uL RT-qPCR reactions, cell lysates were transferred to 384-well qPCR plates containing the master mix according to the table below. The plates were sealed, gently vortexed, and spun down before the run. The volumes were adjusted accordingly in some instances where the reaction was carried in 20 uL. The table below summarizes the components of the RT-qPCR reactions:
(§2) The RT-qPCR reaction was performed using a QuantStudio (ThermoFisher) under the following fast cycling conditions. All samples and standards were analyzed at least in duplicate. In some instances, bulk room temperature (RT) step of 5-10 minutes was completed for all plates before proceeding with qPCR. The table below summarizes the PCR cycle:
(§3) The data analysis was performed by first determining the ΔCt vs the housekeeper gene. This ΔCt was then normalized against the DMSO control (ΔΔCt) and converted to RQ (relative quantification) using the 2^(−ΔΔCt) equation. The RQ were then converted to a percentage response by arbitrarily setting an assay window of 3.5 ΔCt for HTT-CJ and an assay window of 9 ΔCt for HTT-AJ. […] The percentage response was then fitted to the 4 parametric logistic equation to evaluate the concentration dependence of compound treatment. The increase in AJ mRNA is reported as AC50 (compound concentration having 50% response in AJ increase) while the decrease in CJ mRNA levels is reported as IC50 (compound concentration having 50% response in CJ decrease).
(§4) Additional studies were carried out for a larger panel of genes using the protocol provided above. The junction between flanking upstream and downstream exons was used to design canonical junction qPCR assays. At least one of the forward primer, reverse primer or the CY5-labeled 5′ nuclease probe (with 3′ quencher such as ZEN/Iowa Black FQ) was designed to overlap with the exon junction to capture the CJ mRNA transcript. BLAST was used to confirm the specificity of the probeset and parameters such as melting temperature, GC content, amplicon size, and primer dimer formation are considered during their design. Data for the decrease in CJ mRNA levels for three exemplary genes (HTT, SMN2, and Target C) analyzed in this panel are reported as IC50 (compound concentration having 50% response in CJ decrease).
A general note: Real-time PCR tracks product formation cycle by cycle.

Another assay relates to SMN2. As to the kind of experiment: Gene panel canonical junction qPCR assay, SMN2 CJ mRNA. Particulars: Table 9, CJ mRNA decrease, read-out: SMN2 IC50 (decrease in CJ mRNA levels). Here is the method:
as §1, §2, §3, §4

Assay [1] deals with HTT. The experiment in a line: Gene panel canonical junction qPCR assay, HTT CJ mRNA. As to conditions: Table 9, CJ mRNA decrease, read-out: HTT IC50 (decrease in CJ mRNA levels). The method, then:
as §1, §2, §3, §4

Assay [2] has as its system HTT. The experiment in a line: Splicing assay (RT-qPCR on cell lysates) monitoring HTT splice variants: AJ and CJ mRNA. As to conditions: Table 8, concentration having 50% response. The method in brief: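 Cell lysates were analysed by RT-qPCR, with ΔCt taken against a housekeeping gene and normalised to DMSO to give RQ by 2^(−ΔΔCt). Assay windows were set at 9 ΔCt for AJ and 3.5 ΔCt for CJ, and 4-parameter fits gave AC50 for the AJ increase and IC50 for the CJ decrease.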

Where [3] appears, read: decrease in CJ mRNA, read-out: HTT CJ AC50.
The mark [4] stands for this setting: increase in AJ mRNA, read-out: HTT AJ AC50.

Consider `c1nc2c(-c3cn[nH]c3)ccc(-c3ccc(N4CCC5(CCNC5)CC4)nn3)c2s1` [Compound 192], for which the pIC50 in the assay on Target C, with SMN2 and with HTT [1] was < 5.00 throughout. For the same compound, the AC50 in the assay on HTT [2] (setting [3]) and in the assay with HTT [2] (setting [4]) was > 10 µM in each case.
For `c1nc2c(-c3cn[nH]c3)ccc(-c3ccc(N4CCCC5(CCNC5)C4)nn3)c2s1` (stereo not shown) [Compound 193], the pIC50 in the assay on Target C, in the assay on SMN2 and with HTT [1] was < 5.00 each time. Further, the AC50 in the assay on HTT [2] (setting [3]) and in the assay on HTT [2] (setting [4]) was > 10 µM each time.
In the case of `c1nc2c(-c3cn[nH]c3)ccc(-c3ccc(N4C[C@H]5CNC[C@H]5C4)nn3)c2s1` [Compound 194, 7-{6-[(exo)-hexahydro-1H-pyrrolo[3,4-c]pyrrol-2-yl]pyridazin-3-yl}-4-(1H-pyrazol-4-yl)-1,3-benzothiazole hydrochloride], the pIC50 in the assay on Target C is < 5.00; in the assay on SMN2 it was 6.00 to 7.00; with HTT [1], 5.00 to 6.00. Further, the AC50 in the assay with HTT [2] (setting [3]) is 1 to 10 µM; in the assay on HTT [2] (setting [4]), > 10 µM.
On to `c1nc2c(-c3cn[nH]c3)ccc(-c3ccc(NC4CNC4)nn3)c2s1` [Compound 196], for which the pIC50 with Target C, with SMN2 and with HTT [1] was < 5.00 each time. For the same compound, the AC50 in the assay on HTT [2] (setting [3]) and in the assay with HTT [2] (setting [4]) was > 10 µM in each case.
On to `c1nc2c(-c3cn[nH]c3)ccc(-c3ccc(N4CC5(CCNCC5)C4)nn3)c2s1` [Compound 197], for which the pIC50 with Target C was < 5.00; in the assay on SMN2, 5.00 to 6.00; with HTT [1] it was 5.00 to 6.00. In addition, the AC50 in the assay on HTT [2] (setting [3]) and in the assay on HTT [2] (setting [4]) was 1 to 10 µM in each case.
With `CN1C[C@@H]2CN(c3ccc(-c4ccc(-c5cn[nH]c5)c5ncsc45)nn3)C[C@@H]2C1` [Compound 198, 7-{6-[(exo)-5-methyl-hexahydropyrrolo[3,4-c]pyrrol-2-yl]pyridazin-3-yl}-4-(1H-pyrazol-4-yl)-1,3-benzothiazole hydrochloride], the figures for the pIC50 with Target C, with SMN2 and in the assay on HTT [1] were < 5.00, 6.00 to 7.00 and < 5.00, respectively. For the same compound, the AC50 in the assay on HTT [2] (setting [3]) and in the assay with HTT [2] (setting [4]) was > 10 µM each time.
With `c1nc2c(-c3cn[nH]c3)ccc(-c3ccc(S[C@@H]4C[C@H]5CC[C@@H](C4)N5)nn3)c2s1` [Compound 200, 7-{6-[(exo)-8-azabicyclo[3.2.1]octan-3-ylsulfanyl]pyridazin-3-yl}-4-(1H-pyrazol-4-yl)-1,3-benzothiazole], the pIC50 in the assay with Target C, in the assay on SMN2 and in the assay on HTT [1] was < 5.00 each time. Also, the AC50 in the assay on HTT [2] (setting [3]) and in the assay with HTT [2] (setting [4]) was > 10 µM each time.
For the compound `Cc1ncc(-c2ccc(-c3ccc(N(C)C4CC(C)(C)NC(C)(C)C4)nn3)c3ncsc23)o1` [Compound 201], the pIC50 was 5.00 to 6.00 in the assay on Target C, 6.00 to 7.00 in the assay on SMN2 and 5.00 to 6.00 with HTT [1]. For the same compound, the AC50 with HTT [2] (setting [3]) and with HTT [2] (setting [4]) was 1 to 10 µM each time.
In the case of `c1nc2c(-c3cn[nH]c3)ccc(-c3ccc(N[C@@H]4C[C@H]5CC[C@@H](C4)N5)nn3)c2s1` [Compound 202, (exo-)-N-[6-[4-(1H-pyrazol-4-yl)-1,3-benzothiazol-7-yl]pyridazin-3-yl]-8-azabicyclo[3.2.1]octan-3-amine], the pIC50 with Target C is 6.00 to 7.00; with SMN2 it was > 7.00; in the assay with HTT [1], > 7.00. Further, the AC50 with HTT [2] (setting [3]) and in the assay on HTT [2] (setting [4]) was < 0.1 µM each time.
In the case of `CCN(c1ccc(-c2ccc(-c3cn[nH]c3)c3ncsc23)nn1)[C@@H]1C[C@H]2CC[C@@H](C1)N2` [Compound 203, (exo-)-N-ethyl-N-[6-[4-(1H-pyrazol-4-yl)-1,3-benzothiazol-7-yl]pyridazin-3-yl]-8-azabicyclo[3.2.1]octan-3-amine], the pIC50 in the assay with Target C was 6.00 to 7.00; in the assay on SMN2, > 7.00; in the assay on HTT [1] it was 6.00 to 7.00. For the same compound, the AC50 with HTT [2] (setting [3]) and in the assay on HTT [2] (setting [4]) was 0.1 to 1 µM in each case.
For the compound `CN(c1ccc(-c2ccc(-c3cn[nH]c3)c3ncsc23)nn1)[C@H]1C[C@]2(C)CC[C@](C)(C1)N2` [Compound 204, (exo-)-N,1,5-trimethyl-N-[6-[4-(1H-pyrazol-4-yl)-1,3-benzothiazol-7-yl]pyridazin-3-yl]-8-azabicyclo[3.2.1]octan-3-amine], the pIC50 with Target C, in the assay with SMN2 and in the assay with HTT [1] was > 7.00 throughout. Further, the AC50 with HTT [2] (setting [3]) and with HTT [2] (setting [4]) was < 0.1 µM throughout.
For the compound `CN(c1ccc(-c2ccc(-c3cn[nH]c3)c3ncsc23)nn1)[C@H]1[C@@H]2CNC[C@@H]21` [Compound 205, (exo-)-N-methyl-N-[6-[4-(1H-pyrazol-4-yl)-1,3-benzothiazol-7-yl]pyridazin-3-yl]-3-azabicyclo[3.1.0]hexan-6-amine], the figures for the pIC50 in the assay on Target C, in the assay with SMN2 and in the assay with HTT [1] were < 5.00, 5.00 to 6.00 and < 5.00, respectively. Further, the AC50 in the assay with HTT [2] (setting [3]) and with HTT [2] (setting [4]) was > 10 µM throughout.
With `c1nc2c(-c3cn[nH]c3)ccc(-c3ccc(C4CCNCC4)nn3)c2s1` [Compound 206], the pIC50 is < 5.00 with Target C, > 7.00 with SMN2 and 5.00 to 6.00 in the assay on HTT [1]. Besides, the AC50 with HTT [2] (setting [3]) is 1 to 10 µM; with HTT [2] (setting [4]) it was > 10 µM.
As for `c1nc2c(-c3cn[nH]c3)ccc(-c3ccc(O[C@@H]4C[C@H]5CCC[C@@H](C4)N5)nn3)c2s1` [Compound 209], the pIC50 in the assay with Target C is < 5.00; in the assay with SMN2 it was 6.00 to 7.00; in the assay on HTT [1], < 5.00. Further, the AC50 with HTT [2] (setting [3]) and in the assay with HTT [2] (setting [4]) was > 10 µM in each case.
Turning to `[2H]C([2H])([2H])N(c1ccc(-c2ccc(-c3cn[nH]c3)c3ncsc23)nn1)[C@@H]1C[C@H]2CC[C@@H](C1)N2` [Compound 210, (exo-)-N-(D3)methyl-N-[6-[4-(1H-pyrazol-4-yl)-1,3-benzothiazol-7-yl]pyridazin-3-yl]-8-azabicyclo [3.2.1]octan-3-amine], the pIC50 in the assay on Target C, in the assay on SMN2 and in the assay with HTT [1] was > 7.00 throughout. Besides, the AC50 in the assay with HTT [2] (setting [3]) and in the assay with HTT [2] (setting [4]) was < 0.1 µM throughout.
`CN(c1ccc(-c2ccc(-c3cn[nH]c3)c3ncsc23)nn1)[C@@H]1C[C@H]2CC[C@@H](C1)N2` [Compound 213, (exo)-N-methyl-N-{6-[4-(1H-pyrazol-4-yl)-1,3-benzothiazol-7-yl]pyridazin-3-yl}-8-azabicyclo[3.2.1]octan-3-amine]: the pIC50 in the assay with Target C, in the assay with SMN2 and in the assay on HTT [1] was > 7.00 in each case. Further, the AC50 with HTT [2] (setting [3]) and in the assay with HTT [2] (setting [4]) was < 0.1 µM each time.
As for `c1nc2c(-c3cn[nH]c3)ccc(-c3ccc(NC4CCNCC4)nn3)c2s1` [Compound 214, N-(piperidin-4-yl)-6-[4-(1H-pyrazol-4-yl)-1,3-benzothiazol-7-yl]pyridazin-3-amine], the pIC50 is < 5.00 in the assay with Target C, 6.00 to 7.00 in the assay with SMN2 and < 5.00 in the assay with HTT [1]. Also, the AC50 in the assay with HTT [2] (setting [3]) was > 10 µM; with HTT [2] (setting [4]) it was 1 to 10 µM.
As for `c1nc2c(-c3cn[nH]c3)ccc(-c3ccc(N[C@@H]4C[C@H]5CCC[C@@H](C4)N5)nn3)c2s1` [Compound 215], the pIC50 in the assay on Target C, in the assay with SMN2 and in the assay on HTT [1] was > 7.00 each time. For the same compound, the AC50 in the assay on HTT [2] (setting [3]) and with HTT [2] (setting [4]) was < 0.1 µM throughout.
Regarding `Fc1cc(-c2ccc(O[C@@H]3C[C@H]4CC[C@@H](C3)N4)nn2)c2[nH]ncc2c1-c1cn[nH]c1` [Compound 216, 7-[6-[(exo)-8-azabicyclo[3.2.1]octan-3-yloxy]pyridazin-3-yl]-5-fluoro-4-(1H-pyrazol-4-yl)-1H-indazole], the figures for the pIC50 in the assay with Target C, in the assay with SMN2 and in the assay with HTT [1] were 6.00 to 7.00, > 7.00 and > 7.00, respectively. The AC50 in the assay on HTT [2] (setting [3]) and in the assay on HTT [2] (setting [4]) was < 0.1 µM throughout.
Turning to `c1n[nH]cc1-c1ccc(-c2ccc(N3CC4(CCCNC4)C3)nn2)c2[nH]ncc12` [Compound 218], the pIC50 in the assay on Target C, in the assay with SMN2 and in the assay with HTT [1] was < 5.00 throughout. The AC50 with HTT [2] (setting [3]) and in the assay on HTT [2] (setting [4]) was > 10 µM each time.
